The series is described as follows: Dissolution testing of MK-9 API and nanosuspension in Fed State Simulated Intestinal Fluid (FeSSIF). In kind it is physicochemical. The note with it: for % Dissolution (Avg of n = 3): FeSSIF pH 5, 37° C., 0.01 mg/mL drug load. As for the experimental part: MK-9 (menaquinone-9, API) is suspended in an aqueous vehicle containing wetting agent sodium deoxycholate. The API concentration is 4% and the wetting agent concentration was 0.4% w/w. The API particles are milled to a particle size of 155 nm using zirconium milling beads and high shear Beadbeater mixing. The dissolution of the nanosuspension is tested at a concentration of 0.01 mg/mL, in triplicate, in pH 5 Fed State Simulated Intestinal Fluid (FeSSIF).
2. Fill three (3) vessels with 500 mL of FeSSIF media and heat to 37° C.
3. Set up the following dissolution conditions:
4. Vortex suspension x for approximately one minute so that it is uniform. Weigh three (3) aliquots of 0.15 g of the 4% nanosuspension into a tared syringe to give a target 100% dissolution concentration of 0.01 mg/mL. Record weight.
5. Add weighed suspension directly to each vessel.
7. After five minutes, manually pull up 3 mL from each dissolution vessel in a syringe.
8. Attach a 0.2 μm filter to the syringe.
9. Transfer 2 mL of the dissolution sample back into the vessel.
10. Transfer the final 1 mL of sample to an amber HPLC vial and crimp seal.
12. After the 60-minute time-point, mix each vessel for 5 minutes with a high shear mixer.
13. Repeat Step #8-11 and label this sample as ‘infinity’.
14. Run samples on HPLC 10 minutes HPLC method with replicate HPLC standard solutions.
MK-9 (menaquinone-9, API) is suspended in an aqueous vehicle containing wetting agent, sodium deoxycholate. The API concentration is 4% and the wetting agent concentration was 0.4% w/w. The API particles are milled to a particle size of 155 nm by use of zirconium milling beads and high shear Beadbeater mixing. The dissolution of the nanosuspension is tested at a concentration of 0.01 mg/mL, in triplicate, in pH 5 FeSSIF. […] The nano-milling process is scaled up and the suspended nano-particles are removed from the suspension vehicle, dry and formulate into a fast dissolving tablet, and tested.

With `CC(C)=CCC/C(C)=C/CC/C(C)=C/CC/C(C)=C/CC/C(C)=C/CC/C(C)=C/CC/C(C)=C/CC/C(C)=C/CC/C(C)=C/CC1=C(C)C(=O)c2ccccc2C1=O` [API, menaquinone-9], the “% Dissolution (Avg of n = 3)” value (timepoint 0 minute) is recorded as 0%; the “% Dissolution (Avg of n = 3)” value (timepoint 10 minute) is listed as 96%; the “% Dissolution (Avg of n = 3)” value (timepoint 10 minute, listed as MK-9 API) is “about 20%”; the “% Dissolution (Avg of n = 3)” value (timepoint 15 minute) is 97%; the “% Dissolution (Avg of n = 3)” value (timepoint 30 minute) is listed as 97%; the “% Dissolution (Avg of n = 3)” value (timepoint 45 minute) is 98%. Also, the “% Dissolution (Avg of n = 3)” value reads like this: (timepoint 60 minute) 96%; (timepoint Infinity (after 5 minutes high shear mixing)) 97%. In addition, the “% Dissolution (dissolution profile)” value (FeSSIF, at about 120 mins) is “about 20%”.
